This data set is described as follows: in vitro. The settings on record: human, hela cells, % viability.

Each structure is given as a SMILES string.

In general, viability refers to a read-out of living cells in per cent, often relative to untreated cells.

As for `CCn1cc(CN2CCCN(C(=O)c3cc(C)on3)CC2)cn1` [CBK306145], the viability at 28.5 h, 10 µM is 88.1%.
Same read-out and setting: next, `O=C(Nc1cc(Oc2cncc(Cl)c2)cc([N+](=O)[O-])c1)c1nn2c(C(F)(F)F)cc(-c3cccs3)nc2c1Cl` [CBK262585]: 94.9%; `O=c1oc2ccccc2n1Cc1coc(-c2ccccc2)n1` [CBK296649]: 98.1%; `O=C(O)c1ccc(NC(=O)c2cc(S(=O)(=O)N3CCCCC3)cs2)cc1` [CBK265722]: 101%.
`COc1cncc(C(NC(=O)Cc2cn3ccsc3n2)[C@H]2C[C@H](O)C2)c1` (some centres unmarked) [CBK306642]: the viability at 28.5 h, 10 µM came to 97.2%.
The same measure, in the same setting: the value for `COc1ccc(-c2nn(CN3CCC(C(N)=O)CC3)c(=S)n2-c2ccccc2)cc1OC` [CBK264299] was 91.8%; that for `O=c1cc(CN2CCOCC2)oc2c(OCc3nnnn3C3CC3)cccc12` [CBK007813] was 101%; that for `CC1=NN(c2ccccc2)C(=O)/C1=C(/C)NNC(=O)c1ccccn1` [CBK261837] was 91.7%.
Same read-out and setting: next, `Cc1ccc(NC(=O)CN2C(=O)c3ccccc3C2=O)c(C(=O)O)c1` [CBK262837]: 87.5%; `OCCN1CCN(c2nc(-c3cc(Cl)cc(Cl)c3)cn3ccnc23)CC1` [CBK066558]: 94.1%.
On the same count and under the same terms, next, `CCOc1ccc(C(=O)NC(=S)Nc2cccc(C(=O)O)c2C)cc1Br` [CBK265100]: 93.6%; `C[C@@H](Nc1cncc(-c2ccccc2CO)n1)c1ccccc1` [CBK065543]: 106%; `COc1cc(C2C(C#N)=C(N)OC3=C2C(=O)CC(c2ccccc2)C3)cc(Br)c1O` (centres unmarked) [CBK261587]: 87.1%.
Consider `COc1ccc(C(C)C)cc1-c1cncc(NCC(c2cccnc2)N(C)C)n1` (centres unmarked) [CBK037132], for which the viability at 28.5 h, 10 µM came to 110%.
Turning to `O=C(C1=C(O)C(=O)N(Cc2cccnc2)C1c1cccc([N+](=O)[O-])c1)c1ccccc1` (centres unmarked) [CBK263383], the viability at 28.5 h, 10 µM amounted to 107%.
For the molecule `O=C(Nc1cccc(C(=O)O)c1)Nc1cccc(-c2ccccc2)c1` [CBK155451G], the viability at 28.5 h, 10 µM was determined as 93.5%.
Consider `COc1ccc2c(c1)COC1(CCN(C(=O)Nc3ccc(N(C)C)cc3)CC1)O2` [CBK060753], for which, where the note is “bulk resorufin, single well”, the viability at 28.5 h, 10 µM came out at 98.8%.
Turning to `COc1ccc([N+](=O)[O-])cc1NC(=O)c1cc(-c2cccnc2)nc2ccc(C)cc12` [CBK267757], the viability at 28.5 h, 10 µM is 86.8%.
Still for that read-out and setting: the value for `Cc1cc(C)n(CCNC(=O)c2ncoc2-c2ccc(F)cc2)n1` [CBK282356] was 83.2%; that for `Cc1cccc(C(=O)N/N=C/c2ccoc2)c1O` [CBK018727] was 90.7%.
Same read-out and setting: the value for `Cc1nc2sc(C(=O)OCc3cc(=O)oc4cc5c(cc34)CCC5)c(C)c2c(=O)[nH]1` [CBK297528] was 114%.
With `Cc1ccc(CN2Cc3cc4ccccc4nc3OC(C)C2=O)o1` (centres unmarked) [CBK284004], the viability at 28.5 h, 10 µM was found to be 90.6%.
Take `COc1ccc(C(c2ccccc2C)N(C)C(=O)C2CCN(C(C)=O)CC2)cn1` (centres unmarked) [CBK060490]: the viability at 28.5 h, 10 µM is 90.8%.
`CCOc1ccc(-c2cnc(SCC(=O)O)nc2N)cc1` [CBK269928]: the viability at 28.5 h, 10 µM amounted to 105%.
The same measure, in the same setting: next, `Cc1ccc([N+](=O)[O-])c(OCCN2CCN(Cc3ccccc3)CC2)c1` [CBK268568G]: 99.2%; `COc1cc(Nc2cncc(-c3ccc(O)cc3)n2)c(Cl)cc1C(=O)NCC(F)(F)F` [CBK126470]: 82.9%; `COc1ccc(C(=O)/C=C/c2cccs2)c(OC(=O)c2ccc([N+](=O)[O-])cc2)c1` [CBK264926]: 118%.
On the same count and under the same terms, next, `CN(c1ccc(C(=O)Nc2ccc(S(=O)(=O)N3CCCC3)cc2)cc1)S(=O)(=O)c1ccccc1` [CBK266896]: 102%; `O=c1[nH]nc2c(N3CCc4ccccc4C3)nccn12` [CBK288497]: 80.9%; `CC(C)C(=O)N1CCC(Cn2nc(-c3ccccc3)ccc2=O)CC1` [CBK284114]: 83.1%.
Still for that read-out and setting: next, `Cc1nn(C)c(N2CCNCC2)c1NC(=O)c1cc(-c2ccccc2)oc1C` [CBK050356T]: 92.8%; `COc1ccccc1C(NC(=O)N(C(C)C)C(C)C)c1nccn1C` (centres unmarked) [CBK283834]: 81.9%; `Nc1nc(SCc2cccc([N+](=O)[O-])c2)n[nH]1` [CBK268688]: 105%.
Regarding `COc1cc(C(c2c(C)n(C)n(-c3ccccc3)c2=O)c2c(C)n(C)n(-c3ccccc3)c2=O)ccc1O` [CBK261690], the viability at 28.5 h, 10 µM was determined as 110%.
Still for that read-out and setting: next, `Fc1ccc(NC(=S)NCC2CC2)c(F)c1` [CBK011398]: 100%; `O=C(O)CCCCCN1C(=O)/C(=C/c2ccc(O)c(O)c2)SC1=S` [CBK262771]: 91%; `CCNC(=O)NC[C@@H]1C=C(C)[C@H](CC(=O)N2CCOCC2)C[C@H]1C(C)C` [CBK289051]: 102%.
Still for that read-out and setting: the value for `Cc1c(S(=O)(=O)N2CCC(N)C2)sc2ccc(Cl)cc12` (centres unmarked) [CBK164970] was 89.3%; that for `O=C(NCc1nc(-c2ccccc2)no1)C(c1cccs1)c1cccs1` [CBK286340] was 109%; that for `COc1cc(NC(=O)CSc2ncnc3sc4c(c23)CCCC4)cc(OC)c1` [CBK267547] was 89.6%.
Same read-out and setting: the value for `CCCCOc1ccc(C=Cc2nc3sc(C(=O)O)c(C)c3c(=O)[nH]2)cc1` [CBK297524] was 86.5%; that for `Cc1cnn(CCCNC(=S)Nc2ccc(S(N)(=O)=O)cc2)c1` [CBK266957] was 90.7%.
For the molecule `CS(=O)(=O)c1ccc(NC(=S)N2CCN(c3ccc(F)cc3)CC2)cc1` [CBK300507], the viability at 28.5 h, 10 µM was 95.3%.
The same measure, in the same setting: next, `Cc1cc(C(=O)C(C)Sc2nnc(N)s2)c(C)n1-c1ccccc1` (centres unmarked) [CBK297916]: 87%; `Cc1ccnn1CCC(=O)NC1(c2ccc(F)cc2)CCCC1` [CBK283600]: 115%; `COc1ccc(N2CCN(c3cncc(-c4cccc(N)c4)n3)CC2)cc1OC` [CBK066126]: 94.3%.
`COc1ccccc1CCNCc1ccc(Br)cc1` [CBK015036G]: the viability at 28.5 h, 10 µM (bulk resorufin, single well) was determined as 96.2%.
Regarding `CC(C)(C)CC(NC(=O)C1CCCN(S(C)(=O)=O)C1)c1ccccc1` (centres unmarked) [CBK304563], the viability at 28.5 h, 10 µM is 90.6%.
The same measure, in the same setting: next, `CC1CC(C)CN(C(=O)c2cc(S(=O)(=O)N3CCOCC3)ccc2Cl)C1` (centres unmarked) [CBK305000]: 87%; `COc1ccc2c(CN(C)Cc3cc(C)[nH]n3)cn(C)c2c1` [CBK281734]: 103%; `CCOc1cc(/C=N/NC(=O)c2cncc(Br)c2)c(Br)c(Br)c1O` [CBK261386]: 86.3%.
Still for that read-out and setting: the value for `CCc1c(O)c2ccccc2n(Cc2ccccc2)c1=O` [CBK219367] was 90%.
The same measure, in the same setting: the value for `C[C@H]1CN2C[C@H](O)CC2CN1Cc1cccc2ccccc12` (some centres unmarked) [CBK284717] was 92.5%; that for `O=c1n(C(c2ccccc2)c2ccccc2)ccn1S(=O)(=O)c1ccc(Oc2ccccc2)cc1` [CBK106624] was 89.5%; that for `CC(Oc1ccc(Cl)cc1Cl)C(=O)Nc1ccc(N2CCN(C)CC2)cc1` (centres unmarked) [CBK266780] was 94.1%.
Regarding `Cc1ccc(-c2nccnc2OCCc2c[nH]c3ccccc23)cc1C` [CBK106850], the viability at 28.5 h, 10 µM came out at 96%.
Take `Cc1ccc(-c2nc(C3CCCN3C(=O)C3CC3C(=O)O)n3ccccc23)cc1` (centres unmarked) [CBK046559]: the viability at 28.5 h, 10 µM came out at 79.8%.
Take `CCn1c2ccccc2n2c(SC(C)C(=O)O)nnc12` (centres unmarked) [CBK267079]: the viability at 28.5 h, 10 µM was found to be 103%.
Still for that read-out and setting: the value for `O=C(O)c1cccc2c1C(=O)C(CC1CCCO1)N2` (centres unmarked) [CBK287140] was 90.6%; that for `CC(=O)Nc1ccc(-c2ccc(C(=O)N3CCN(C4CCN(C)CC4)CC3)cn2)cc1` [CBK158824] was 96.7%.
The same measure, in the same setting: the value for `CCOc1cc(C=Cc2cc(C(=O)O)c3ccccc3n2)ccc1OC(F)F` [CBK296952] was 86.3%.
Still for that read-out and setting: the value for `CN(C)S(=O)(=O)N1CCN(c2ccc([N+](=O)[O-])c(NCCc3ccccc3)c2)CC1` [CBK266498] was 102%; that for `C/C(N)=C(/C#N)C(NC(=O)C1CCCCC1)(C(F)(F)F)C(F)(F)F` [CBK267902] was 91.1%; that for `O=C(NCCN1CCOCC1)c1sc2cc(F)ccc2c1Cl` [CBK018212] was 120%.
Turning to `CCOC(=O)c1cn(CC2(CO)CCC2)cc(Oc2ccccc2)c1=O` [CBK306698], the viability at 28.5 h, 10 µM turned out to be 97.2%.
On the same count and under the same terms, the value for `CN1CCN(CC(=O)Nc2sc3c(c2C(=O)Nc2ccccc2)CCCC3)CC1` [CBK268431] was 117%; that for `CC1CCN(CCN2CCn3c2nc2ccccc23)CC1` [CBK265467B] was 80%.
In the case of `COC(=O)c1ccc(N2C(=O)NC(=O)/C(=C\c3ccc(OCC(=O)O)cc3)C2=O)cc1` [CBK265407], the viability at 28.5 h, 10 µM (bulk resorufin, single well) came to 85.2%.
For `Cn1cc(CNCCCN2CCc3ccccc32)c(-c2cccnc2)n1` [CBK306316], the viability at 28.5 h, 10 µM was found to be 93.3%.
The same measure, in the same setting: next, `Cc1ccc(SCCNCCN2CCOCC2)cc1` [CBK268581G]: 104%; `CCCNCC(=O)N1CCN(C(=O)c2ccc(C)cc2)CC1` [CBK025546]: 103%.
On the same count and under the same terms, the value for `O=C(Cc1ccsc1)N1CCCC2(CCN(Cc3ccccc3)C2)C1` (centres unmarked) [CBK136868] was 86.7%.
The same measure, in the same setting: next, `COc1ccc(SCC(=O)Nc2nccs2)cc1` [CBK287751]: 83.4%; `O=C(c1nc[nH]n1)N1CCN(c2nccc(CCC(F)(F)F)n2)CC1` [CBK307306]: 106%; `Cc1ccc2cc(CN(Cc3cccs3)C(=O)NCc3ccccc3)c(=O)[nH]c2c1C` [CBK068496]: 91.2%.
Take `CC(C)c1ccc(S(=O)(=O)NCCC2CCN(Cc3ccccc3)CC2)cc1` [CBK043456]: the viability at 28.5 h, 10 µM turned out to be 94.5%.
Same read-out and setting: next, `NC(=O)c1c(NC(=S)NC(NC(=O)c2ccccc2)C(Cl)(Cl)Cl)sc2c1CCCC2` (centres unmarked) [CBK261048]: 90.6%.

The record behind these values is publication PMC12040169 (PLOS Biology, 2025).
